According to ChEMBL document CHEMBL1201862, “PubChem BioAssay data set” (2004):
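Grown in 96-well plates, cells were treated for 48 hours with each compound at five concentrations. Insufficient inhibition: endpoint recorded as highest concentration tested. At the GI50, growth is halved.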 Active and inactive are the calls of the source. Cut-off read from the data, not from the text of the source: active = GI50 up to about 1.1 µM and inactive = higher.

Tests used:
Assay in all cases: NCI-60 cell line screen, 48 h
EKVX = tested on: EKVX
HL-60 = tested on: HL-60
HOP-62 = tested on: HOP-62
HT-29 = tested on: HT-29
IGROV-1 = tested on: IGROV-1
M14 = tested on: M14
MOLT-4 = tested on: MOLT-4
OVCAR-4 = tested on: OVCAR-4
OVCAR-5 = tested on: OVCAR-5
SF-539 = tested on: SF-539
SK-MEL-28 = tested on: SK-MEL-28
SK-MEL-2 = tested on: SK-MEL-2
SN12C = tested on: SN12C
SNB-19 = tested on: SNB-19
SR = tested on: SR
U-251 = tested on: U-251
UACC-257 = tested on: UACC-257
UO-31 = tested on: UO-31
PC-3 = tested on: PC-3

Compound: COC(=O)C(C)(C)/N=C/N(C)C
- GI50 (EKVX): > 100 µM (inactive)
- GI50 (HL-60): 55.6 µM (inactive)
- GI50 (HOP-62): > 100 µM (inactive)
- GI50 (HT-29): > 100 µM (inactive)
- GI50 (IGROV-1): > 100 µM (inactive)
- GI50 (M14): > 100 µM (inactive)
- GI50 (MOLT-4): > 100 µM (inactive)
- GI50 (OVCAR-4): > 100 µM (inactive)
- GI50 (OVCAR-5): > 100 µM (inactive)
- GI50 (SF-539): > 100 µM (inactive)
- GI50 (SK-MEL-28): > 100 µM (inactive)
- GI50 (SK-MEL-2): > 100 µM (inactive)
- GI50 (SN12C): > 100 µM (inactive)
- GI50 (SNB-19): > 100 µM (inactive)
- GI50 (SR): > 100 µM (inactive)
- GI50 (U-251): > 100 µM (inactive)
- GI50 (UACC-257): > 100 µM (inactive)
- GI50 (UO-31): > 100 µM (inactive)

Compound: O=C1C=CC(=O)C2C1Cc1ccccc1C2c1ccccc1 (configuration not stated)
- GI50 (EKVX): 31.1 µM (inactive)
- GI50 (HL-60): 23 µM (inactive)
- GI50 (HOP-62): > 100 µM (inactive)
- GI50 (HT-29): 37.8 µM (inactive)
- GI50 (IGROV-1): 67 µM (inactive)
- GI50 (M14): 42.8 µM (inactive)
- GI50 (MOLT-4): 32.7 µM (inactive)
- GI50 (OVCAR-4): 20.5 µM (inactive)
- GI50 (OVCAR-5): > 100 µM (inactive)
- GI50 (SF-539): 30.5 µM (inactive)
- GI50 (SK-MEL-28): 97.1 µM (inactive)
- GI50 (SK-MEL-2): 27.8 µM (inactive)
- GI50 (SN12C): 39.7 µM (inactive)
- GI50 (SNB-19): > 100 µM (inactive)
- GI50 (SR): 23.7 µM (inactive)
- GI50 (U-251): 18.2 µM (inactive)
- GI50 (UACC-257): 28.1 µM (inactive)
- GI50 (UO-31): 47.1 µM (inactive)

Compound: CCOC1(COP(=O)(OCc2ccccc2)OCc2ccccc2)COC(COP(=O)(OCc2ccccc2)OCc2ccccc2)(OCC)CO1 (configuration not stated)
- GI50 (EKVX): 2.32 µM (inactive)
- GI50 (HL-60): 30.8 µM (inactive)
- GI50 (HOP-62): > 100 µM (inactive)
- GI50 (HT-29): > 100 µM (inactive)
- GI50 (IGROV-1): > 100 µM (inactive)
- GI50 (M14): > 100 µM (inactive)
- GI50 (MOLT-4): 17.4 µM (inactive)
- GI50 (OVCAR-4): 4.61 µM (inactive)
- GI50 (OVCAR-5): > 100 µM (inactive)
- GI50 (SF-539): > 100 µM (inactive)
- GI50 (SK-MEL-28): > 100 µM (inactive)
- GI50 (SK-MEL-2): > 100 µM (inactive)
- GI50 (SN12C): > 100 µM (inactive)
- GI50 (SNB-19): > 100 µM (inactive)
- GI50 (SR): > 100 µM (inactive)
- GI50 (U-251): > 100 µM (inactive)
- GI50 (UACC-257): > 100 µM (inactive)

Compound: COC(=O)C1=C(c2ccc3c(c2)OCO3)O[C@H](c2cc(OC)c(OC)c(OC)c2)[C@H]1COC(C)=O
- GI50 (EKVX): 38.3 µM (inactive)
- GI50 (HL-60): 0.49 µM (active)
- GI50 (HOP-62): 3.08 µM (inactive)
- GI50 (HT-29): 2.53 µM (inactive)
- GI50 (IGROV-1): 6.84 µM (inactive)
- GI50 (M14): 1.71 µM (inactive)
- GI50 (MOLT-4): 3.03 µM (inactive)
- GI50 (OVCAR-4): 7.48 µM (inactive)
- GI50 (OVCAR-5): 41.8 µM (inactive)
- GI50 (SF-539): 1.99 µM (inactive)
- GI50 (SK-MEL-28): 12.2 µM (inactive)
- GI50 (SK-MEL-2): 12.6 µM (inactive)
- GI50 (SN12C): 4.34 µM (inactive)
- GI50 (SR): 1.35 µM (inactive)
- GI50 (U-251): 3.48 µM (inactive)
- GI50 (UACC-257): 4.4 µM (inactive)
- GI50 (UO-31): 4.31 µM (inactive)

Compound: Cc1cnoc1/N=C1\C=C(Nc2oncc2C)C(=O)c2ccccc21
- GI50 (EKVX): > 100 µM (inactive)
- GI50 (HL-60): > 100 µM (inactive)
- GI50 (HOP-62): > 100 µM (inactive)
- GI50 (HT-29): > 100 µM (inactive)
- GI50 (IGROV-1): > 100 µM (inactive)
- GI50 (M14): > 100 µM (inactive)
- GI50 (MOLT-4): > 100 µM (inactive)
- GI50 (OVCAR-4): > 100 µM (inactive)
- GI50 (OVCAR-5): > 100 µM (inactive)
- GI50 (SF-539): > 100 µM (inactive)
- GI50 (SK-MEL-28): > 100 µM (inactive)
- GI50 (SK-MEL-2): > 100 µM (inactive)
- GI50 (SN12C): > 100 µM (inactive)
- GI50 (SNB-19): > 100 µM (inactive)
- GI50 (SR): > 100 µM (inactive)
- GI50 (U-251): > 100 µM (inactive)
- GI50 (UACC-257): 65.6 µM (inactive)
- GI50 (UO-31): 62.1 µM (inactive)

Compound: CCOC(=O)C1=C(C)N(c2ccccc2)C2=C(C(=O)N(c3ccccc3)C2c2ccccc2)C1c1ccccc1 (configuration not stated)
- GI50 (EKVX): > 100 µM (inactive)
- GI50 (HL-60): > 100 µM (inactive)
- GI50 (HOP-62): > 100 µM (inactive)
- GI50 (HT-29): > 100 µM (inactive)
- GI50 (IGROV-1): > 100 µM (inactive)
- GI50 (M14): > 100 µM (inactive)
- GI50 (MOLT-4): > 100 µM (inactive)
- GI50 (OVCAR-4): > 100 µM (inactive)
- GI50 (OVCAR-5): > 100 µM (inactive)
- GI50 (SF-539): > 100 µM (inactive)
- GI50 (SK-MEL-28): > 100 µM (inactive)
- GI50 (SK-MEL-2): > 100 µM (inactive)
- GI50 (SN12C): > 100 µM (inactive)
- GI50 (SNB-19): > 100 µM (inactive)
- GI50 (SR): > 100 µM (inactive)
- GI50 (U-251): > 100 µM (inactive)
- GI50 (UACC-257): > 100 µM (inactive)
- GI50 (UO-31): > 100 µM (inactive)

Compound: CC(=O)C1CC=C(C)CC1 (configuration not stated)
- GI50 (EKVX): > 100 µM (inactive)
- GI50 (HL-60): > 100 µM (inactive)
- GI50 (HOP-62): > 100 µM (inactive)
- GI50 (HT-29): > 100 µM (inactive)
- GI50 (IGROV-1): > 100 µM (inactive)
- GI50 (M14): > 100 µM (inactive)
- GI50 (MOLT-4): > 100 µM (inactive)
- GI50 (OVCAR-4): > 100 µM (inactive)
- GI50 (OVCAR-5): > 100 µM (inactive)
- GI50 (SF-539): > 100 µM (inactive)
- GI50 (SK-MEL-28): > 100 µM (inactive)
- GI50 (SK-MEL-2): > 100 µM (inactive)
- GI50 (SN12C): > 100 µM (inactive)
- GI50 (SNB-19): > 100 µM (inactive)
- GI50 (SR): > 100 µM (inactive)
- GI50 (U-251): > 100 µM (inactive)
- GI50 (UACC-257): > 100 µM (inactive)
- GI50 (UO-31): > 100 µM (inactive)

Compound: CC(=O)O[C@]1(C)OC(=O)[C@@H](C)N1[N+](=O)[O-]
- GI50 (EKVX): > 100 µM (inactive)
- GI50 (HL-60): 32.1 µM (inactive)
- GI50 (HOP-62): > 100 µM (inactive)
- GI50 (HT-29): > 100 µM (inactive)
- GI50 (IGROV-1): > 100 µM (inactive)
- GI50 (M14): > 100 µM (inactive)
- GI50 (MOLT-4): 45.9 µM (inactive)
- GI50 (OVCAR-4): > 100 µM (inactive)
- GI50 (OVCAR-5): > 100 µM (inactive)
- GI50 (SF-539): > 100 µM (inactive)
- GI50 (SK-MEL-28): > 100 µM (inactive)
- GI50 (SK-MEL-2): > 100 µM (inactive)
- GI50 (SN12C): > 100 µM (inactive)
- GI50 (SNB-19): > 100 µM (inactive)
- GI50 (SR): 34.9 µM (inactive)
- GI50 (U-251): > 100 µM (inactive)
- GI50 (UACC-257): > 100 µM (inactive)
- GI50 (UO-31): > 100 µM (inactive)

Compound: CCC/C=C\C=C\C1(NS(=O)(=O)c2ccc(C)cc2)CCC(C(C)(C)C)CC1 (configuration not stated)
- GI50 (EKVX): 14.2 µM (inactive)
- GI50 (HL-60): 6.93 µM (inactive)
- GI50 (HOP-62): 20.7 µM (inactive)
- GI50 (HT-29): 15.5 µM (inactive)
- GI50 (IGROV-1): 27 µM (inactive)
- GI50 (M14): 13.3 µM (inactive)
- GI50 (MOLT-4): 7.1 µM (inactive)
- GI50 (OVCAR-4): 17.1 µM (inactive)
- GI50 (OVCAR-5): 21.5 µM (inactive)
- GI50 (SF-539): 35.7 µM (inactive)
- GI50 (SK-MEL-2): 13.5 µM (inactive)
- GI50 (SN12C): 11.2 µM (inactive)
- GI50 (SNB-19): 35.5 µM (inactive)
- GI50 (SR): 3.15 µM (inactive)
- GI50 (U-251): 12.5 µM (inactive)
- GI50 (UACC-257): 16.8 µM (inactive)
- GI50 (UO-31): 23.7 µM (inactive)

Compound: O=C(CBr)N1CCC2(CC1)SSC1(CCN(C(=O)CBr)CC1)S2
- GI50 (HL-60): 1.59 µM (inactive)
- GI50 (HOP-62): 1.9 µM (inactive)
- GI50 (HT-29): 1.81 µM (inactive)
- GI50 (M14): 1.53 µM (inactive)
- GI50 (MOLT-4): 0.159 µM (active)
- GI50 (OVCAR-4): 2.02 µM (inactive)
- GI50 (OVCAR-5): 1.39 µM (inactive)
- GI50 (PC-3): 1.84 µM (inactive)
- GI50 (SF-539): 1.68 µM (inactive)
- GI50 (SK-MEL-28): 2 µM (inactive)
- GI50 (SN12C): 1.93 µM (inactive)
- GI50 (SNB-19): 1.58 µM (inactive)
- GI50 (SR): 0.178 µM (active)
- GI50 (U-251): 1.59 µM (inactive)
- GI50 (UACC-257): 2.76 µM (inactive)
- GI50 (UO-31): 0.593 µM (active)

Compound: Cc1c(/C=N/NC(=O)c2ccc(Cl)cc2)c(=O)n(-c2ccccc2)n1C
- GI50 (EKVX): > 100 µM (inactive)
- GI50 (HL-60): > 100 µM (inactive)
- GI50 (HOP-62): > 100 µM (inactive)
- GI50 (HT-29): > 100 µM (inactive)
- GI50 (IGROV-1): > 100 µM (inactive)
- GI50 (M14): > 100 µM (inactive)
- GI50 (MOLT-4): > 100 µM (inactive)
- GI50 (OVCAR-4): > 100 µM (inactive)
- GI50 (SF-539): > 100 µM (inactive)
- GI50 (SK-MEL-28): > 100 µM (inactive)
- GI50 (SK-MEL-2): > 100 µM (inactive)
- GI50 (SN12C): > 100 µM (inactive)
- GI50 (SNB-19): > 100 µM (inactive)
- GI50 (SR): > 100 µM (inactive)
- GI50 (U-251): > 100 µM (inactive)
- GI50 (UACC-257): > 100 µM (inactive)
- GI50 (UO-31): 95.5 µM (inactive)
